In publication PMC10855526 (2024):

What was measured:
[1] = system: A20:T20 duplex DNA (dA20:dT20) (DNA, duplex) AAAAAAAAAAAAAAAAAAAA/TTTTTTTTTTTTTTTTTTTT; test: UV thermal melting, ΔTm binding isotherm fit; settings: 20 mM NaCl; 10 mM HEPES pH 7.5; 4 µM duplex; chloroquine diphosphate; from ΔTm vs concentration
[2] = system: A20:T20 duplex DNA (dA20:dT20) (DNA, duplex) AAAAAAAAAAAAAAAAAAAA/TTTTTTTTTTTTTTTTTTTT; test: isothermal titration calorimetry; settings: 20 mM NaCl (30 mM Na+ in Table 1); 10 mM Na phosphate pH 7.5; 25 °C; 10 µM DNA; N constrained to 4; binding site size 5 bp
[3] = system: A20:T20 duplex DNA (dA20:dT20) (DNA, duplex) AAAAAAAAAAAAAAAAAAAA/TTTTTTTTTTTTTTTTTTTT; test: UV thermal melting at 260 nm; settings: 20 mM NaCl; 10 mM HEPES pH 7.5; 200 µM chloroquine; 4 µM duplex; fitted saturating ΔTm 16 ± 2 °C

KD [1]: 90 ± 10 µM | KD [2]: 360 ± 20 µM | Tm increase [3]: ~ 10 °C
SMILES: CCN(CC)CCCC(C)Nc1ccnc2cc(Cl)ccc12 (stereo not drawn)
